Where a name gives a salt, the structure may show the parent alone.
Legend:
[1] = Solubility of NPMG-iminourea salts in water; format: physicochemical
Method: SOLUBILITY OF NPMG-IMINOUREA SALTS
NPMG Salt 20° C. (in grams)

[2] = background statement; cited from earlier work
various plant species = conditions: background statement; cited from earlier work

O=C(O)CNCP(=O)(O)O [V, NPMG MONO (TETRA METHYL GUANIDINE) SALT]
Weight dissolved in 100 ml water at 20° C. ([1]; listed as 1,1,3,3 Tetra Methyl Guanidine): 165 grams

O=C(O)CNCP(=O)(O)O [II, NPMG MONO (AMINOGUANIDINE) SALT]
water solubility (in words) ([1]; in words): highly water-soluble
content of active materials in solutions readily prepared ([1]; water as preferred diluent): ≤ 60 % by weight

O=C(O)CNCP(=O)(O)O [NPMG, N-phosphonomethylglycine]
solubility in water and conventional organic solvents (in words) [2]: relatively insoluble in water and conventional organic solvents
herbicidal effect (in words) (various plant species): very effective phytotoxicant or herbicide

O=C(O)CNCP(=O)(O)O [I, NPMG MONO (GUANIDINE) SALT]
Weight dissolved in 100 ml water at 20° C. [1]: 15.7 grams

From patent US4397676A, “N-Phosphonomethylglycine derivatives” (Geshuri Laboratories Ltd., priority 1982, dated 1983)
